Reference: patent US20250017889A1, “INHIBITORS OF P1B-TYPE ATPASES” (THE CURATORS OF THE UNIVERSITY OF MISSOURI, priority 2021, published 2025)

How the values were obtained:
ATP7A = biological target: T1, ATP7A (Homo sapiens, UniProt Q04656); experiment: Microscale thermophoresis (MST) binding to GFP-ATP7A in HEK293 cell lysates; details: for Kd: MST analysis, read-out: ATP7A Binding Affinity KD
T1 construct: expressed in transfected cells; host or cells: HEK293 (detergent-free lysate)
T1 sequence (Q04656 1-1500): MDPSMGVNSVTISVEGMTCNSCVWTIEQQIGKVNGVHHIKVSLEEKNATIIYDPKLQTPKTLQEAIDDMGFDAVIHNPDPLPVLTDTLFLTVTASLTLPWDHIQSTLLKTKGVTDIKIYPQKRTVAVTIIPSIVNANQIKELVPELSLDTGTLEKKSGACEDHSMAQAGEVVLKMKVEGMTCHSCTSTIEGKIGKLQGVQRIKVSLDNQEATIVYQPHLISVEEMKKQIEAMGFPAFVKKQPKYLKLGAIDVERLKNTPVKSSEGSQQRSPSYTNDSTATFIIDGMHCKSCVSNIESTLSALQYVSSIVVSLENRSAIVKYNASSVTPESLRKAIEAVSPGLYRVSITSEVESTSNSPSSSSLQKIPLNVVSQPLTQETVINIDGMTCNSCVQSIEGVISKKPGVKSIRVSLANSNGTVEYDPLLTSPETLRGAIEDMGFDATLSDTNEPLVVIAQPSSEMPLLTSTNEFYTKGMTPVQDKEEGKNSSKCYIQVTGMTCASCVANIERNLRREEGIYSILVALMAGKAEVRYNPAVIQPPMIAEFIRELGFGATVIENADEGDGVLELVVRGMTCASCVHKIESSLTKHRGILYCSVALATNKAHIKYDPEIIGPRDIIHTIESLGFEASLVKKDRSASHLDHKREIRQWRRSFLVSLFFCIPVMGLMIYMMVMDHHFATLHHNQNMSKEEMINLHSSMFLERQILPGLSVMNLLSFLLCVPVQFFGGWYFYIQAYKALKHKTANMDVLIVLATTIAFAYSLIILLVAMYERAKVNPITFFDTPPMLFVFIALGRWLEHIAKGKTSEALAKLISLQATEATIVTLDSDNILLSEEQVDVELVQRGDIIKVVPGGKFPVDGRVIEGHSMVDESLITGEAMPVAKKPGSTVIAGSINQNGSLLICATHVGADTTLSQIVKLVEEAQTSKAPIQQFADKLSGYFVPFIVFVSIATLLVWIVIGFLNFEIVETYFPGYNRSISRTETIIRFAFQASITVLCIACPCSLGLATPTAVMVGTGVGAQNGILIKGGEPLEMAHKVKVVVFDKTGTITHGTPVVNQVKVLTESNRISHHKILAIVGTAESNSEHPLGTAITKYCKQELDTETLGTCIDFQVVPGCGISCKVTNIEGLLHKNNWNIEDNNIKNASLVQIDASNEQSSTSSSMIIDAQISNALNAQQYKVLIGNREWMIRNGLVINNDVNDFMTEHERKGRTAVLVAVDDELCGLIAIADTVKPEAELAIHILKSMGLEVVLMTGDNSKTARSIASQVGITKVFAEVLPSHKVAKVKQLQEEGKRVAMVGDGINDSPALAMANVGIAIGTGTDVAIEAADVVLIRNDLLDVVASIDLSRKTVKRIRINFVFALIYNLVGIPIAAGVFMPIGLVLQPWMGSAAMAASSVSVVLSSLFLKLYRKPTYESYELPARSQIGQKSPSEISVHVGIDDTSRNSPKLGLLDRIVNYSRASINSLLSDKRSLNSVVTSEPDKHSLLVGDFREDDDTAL

[1] = system: tyrosinase activity in B16 melanoma cells; experiment: Tyrosinase activity in wild type B16 melanoma cells (L-DOPA to DOPAchrome), proxy for ATP7A inhibition; assay type: cell-based; details: for IC50: Mus musculus, B16 cells
Description: Tyrosinase is a cuproenzyme involved in melanogenesis that receives copper via ATP7A in the secretory pathway. […] Thus, reductions in tyrosinase activity in wild type B16 cells can be used as a proxy for inhibition of ATP7A. […]

ATP7B = biological target: T2, ATP7B (Homo sapiens, UniProt P35670); experiment: Microscale thermophoresis (MST) binding to GFP-ATP7B in HEK293 cell lysates; details: MST
T2 construct: expressed in transfected cells; host or cells: HEK293 (detergent-free lysate)
T2 sequence (P35670 1-1465): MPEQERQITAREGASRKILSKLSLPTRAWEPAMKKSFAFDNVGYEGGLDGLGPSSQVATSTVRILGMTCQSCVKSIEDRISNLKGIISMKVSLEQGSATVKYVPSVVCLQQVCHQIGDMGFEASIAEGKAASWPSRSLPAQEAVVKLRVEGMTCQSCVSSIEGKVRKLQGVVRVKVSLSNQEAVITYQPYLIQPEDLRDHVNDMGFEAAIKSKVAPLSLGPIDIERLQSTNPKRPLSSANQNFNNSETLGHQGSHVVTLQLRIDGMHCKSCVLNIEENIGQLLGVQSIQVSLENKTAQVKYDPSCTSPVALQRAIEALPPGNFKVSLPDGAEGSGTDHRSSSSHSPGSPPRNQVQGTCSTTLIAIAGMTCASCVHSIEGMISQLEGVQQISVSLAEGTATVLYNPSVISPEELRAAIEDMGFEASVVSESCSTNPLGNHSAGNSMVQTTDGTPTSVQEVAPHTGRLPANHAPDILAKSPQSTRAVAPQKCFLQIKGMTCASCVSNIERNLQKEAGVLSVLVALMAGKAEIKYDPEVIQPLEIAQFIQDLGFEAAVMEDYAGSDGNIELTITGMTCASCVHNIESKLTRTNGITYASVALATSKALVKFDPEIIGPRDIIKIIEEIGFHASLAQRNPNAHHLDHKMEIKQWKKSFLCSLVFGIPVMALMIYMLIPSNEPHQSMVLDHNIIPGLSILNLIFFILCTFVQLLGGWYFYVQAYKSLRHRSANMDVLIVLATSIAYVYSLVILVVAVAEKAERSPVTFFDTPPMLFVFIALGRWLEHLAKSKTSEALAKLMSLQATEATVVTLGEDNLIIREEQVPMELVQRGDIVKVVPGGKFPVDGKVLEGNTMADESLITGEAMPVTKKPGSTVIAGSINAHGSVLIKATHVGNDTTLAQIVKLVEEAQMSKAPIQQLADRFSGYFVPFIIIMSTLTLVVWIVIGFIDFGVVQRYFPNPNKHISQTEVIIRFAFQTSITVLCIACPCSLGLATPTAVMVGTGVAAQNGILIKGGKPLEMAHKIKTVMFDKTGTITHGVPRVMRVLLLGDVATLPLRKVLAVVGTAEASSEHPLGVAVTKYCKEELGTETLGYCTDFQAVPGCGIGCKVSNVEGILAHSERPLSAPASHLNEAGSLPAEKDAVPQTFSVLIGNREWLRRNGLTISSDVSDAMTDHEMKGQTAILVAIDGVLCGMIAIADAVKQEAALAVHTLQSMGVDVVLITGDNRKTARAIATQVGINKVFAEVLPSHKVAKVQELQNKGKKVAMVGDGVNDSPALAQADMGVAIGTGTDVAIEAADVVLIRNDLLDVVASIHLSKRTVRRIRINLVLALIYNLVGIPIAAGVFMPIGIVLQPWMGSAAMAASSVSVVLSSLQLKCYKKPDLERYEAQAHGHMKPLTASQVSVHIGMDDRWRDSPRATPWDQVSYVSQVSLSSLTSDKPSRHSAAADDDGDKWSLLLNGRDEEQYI
Description: (§1) Coordinating residues D935 and E798 are predicted to bind copper during transport.

GFP alone = experiment: Microscale thermophoresis (MST), GFP alone as negative control; assay type: binding
Description: as §1

[2] = Cytotoxicity in B16 cells by MTT and crystal violet assays; assay type: cell-based; details: mouse, B16 melanoma cells; B16 cells, MTT and crystal violet assays; read-out: half-maximal cytotoxic concentration (CC50)
Description: This is consistent with lower affinity of MKV1 for ATP7A (FIG. 6E).

LOX activity = LOX activity secreted into conditioned media of cancer cells; assay type: cell-based; details: 4T1 breast cancer cells, compared with MKV3
[3] = system: ΔcopA/ΔcopB strain of S. aureus; experiment: Growth of copper-sensitive ΔcopA/ΔcopB mutant strain of S. aureus; assay type: cell-based, Staphylococcus aureus; details: copper alone 50 μM
Description: Methicillin-resistant Staphylococcus aureus (MRSA) is a human pathogen that expresses two Cu-transporting P1B-type ATPases, CopA and CopB, which are known to enhance the virulence of this bacterium. 19A illustrates CopA and CopB copper exporters at the plasma membrane of S. aureus. […] The growth of the ΔcopA/ΔcopB strain was inhibited by approximately 50% when copper alone (50 μM) was added to the culture medium.
Wild type MRSA expresses two copper-exporting P1B-type ATPases, CopA and CopB that are required for copper tolerance (FIG. 19A). […] The same experiment was performed using MRSA in which both CopA and CopB genes were deleted (ΔcopA/ΔcopB). Consistent with the known role of CopA and CopB in copper tolerance, the growth of the ΔcopA/ΔcopB strain was inhibited by approximately 50% when copper alone (50 μM) was added to the culture medium (FIG. 19C).

Kd (ATP7A) [µM]	IC50 [1] [µM]	Compound	other results
0.363 ± 0.024	21.559 ± 0.005	O=C(CC(=S)Nc1ccccc1Cl)Nc1ccccc1 [MKV1A]	
0.354 ± 0.021	21.87 ± 0.129	N#CC(C(=O)Nc1ccccc1)C(=S)Nc1ccccc1 (stereo not drawn) [MKV1B]	
0.43 ± 0.016	16.18 ± 0.023	O=C(CC(=S)Nc1ccccc1)Nc1cccc(C(F)(F)F)c1 [MKV1C]	
0.708 ± 0.042	12.222 ± 0.005	O=C(CC(=S)Nc1ccccc1Cl)Nc1cccc(C(F)(F)F)c1 [MKV1D]	
1.06 ± 0.054	11.7 ± 0.001	N#CC(C(=O)Nc1ccccc1)C(=S)Nc1ccccc1Cl (stereo not drawn) [MKV1E]	
1 ± 0.059	8.719 ± 0.014	N#CC(C(=O)Nc1cccc(C(F)(F)F)c1)C(=S)Nc1ccccc1 (stereo not drawn) [MKV1F]	
1.83 ± 0.151	29.98 ± 0.029	O=C(CC(=S)Nc1ccccc1)Nc1ccccc1 [MKV1]	fold difference in affinity for ATP7A between MKV3 (higher) and MKV1 (lower) (ATP7A; MST): approximately 10 fold; fold difference in affinity for ATP7B between MKV3 (higher) and MKV1 (lower) (ATP7B): approximately 10 fold; binding to GFP alone (GFP alone): not to GFP alone; in situ tyrosinase activity ([1]; 50 μM, 24 h, wild type B16 melanoma cells): loss of tyrosinase activity; CC50 [2]: ~270 µM; LOX activity (LOX activity): inhibited LOX activity but only at higher concentrations than for MKV3
		copper	inhibition of growth of the ΔcopA/ΔcopB strain [3]: approximately 50%
